Laboratory results reported in patent publication US20230331707A1, “PROGRAMMED CELL NECROSIS INHIBITOR, PREPARATION METHOD THEREFOR, AND USE THEREOF” (Shanghai Institute of Organic Chemistry, Chinese Academy of …, priority 2020, published 2023).

How the values were obtained:
[1] = tested on: phosphorylation of RIPK1 and phosphorylation of downstream protein MLKL; assay: Programmed necrosis pathway signals by western blot in L929 cells; assay type: cell-based, mouse
Protocol: In order to verify whether the compounds of the present invention can inhibit programmed cell necrosis by inhibiting the activity of RIPK1, and to detect the changes in the signal of the programmed necrosis pathway. FADD-deficient Jurkat or L929 cells treated with the compound of the present invention were used, and TNFα was added to induce programmed necrosis. Then the cells were collected and phosphorylation of RIPK1 and oligomerization of MLKL were detected using western blot.
Methods: FADD-deficient Jurkat cells or L929 cells were cultured in vitro. After growing to the logarithmic growth phase, the cells were collected, centrifuged at 1000 rpm for 5 min, the supernatant was discarded, and the cell concentration was adjusted to 1×10^6/mL. In the 12-well cell culture plate, each well was added with 1 ml of cells, and 0.2 μL of DMSO solution with a concentration of 50 mM drug or pure DMSO control, and pretreated for 1 h. 0.5 μL of TNF α (PBS solution) with a concentration of 100 μg/ml was added to each stimulated group. […] The BCA protein quantification kit was used to detect the protein content of each group, and PIPA lysis buffer was used to adjust the protein amount to make the final volume being 100 μL. […] The resulting sample was incubated with ECL luminescent solution and the luminescent signal was detected.

RIPK1(1-330) protein = biological target: T1, RIPK1(1-330) protein (Homo sapiens, UniProt Q13546); assay: RIPK1(1-330) kinase activity (ADP-Glo); assay type: biochemical; settings: read-out: effective semi-inhibitory concentration on RIPK1 kinase
T1 construct: testing the effect of compound QY-10-40 on the kinase activity of RIPK1(1-330) protein; made in house
T1 sequence (Q13546 1-330): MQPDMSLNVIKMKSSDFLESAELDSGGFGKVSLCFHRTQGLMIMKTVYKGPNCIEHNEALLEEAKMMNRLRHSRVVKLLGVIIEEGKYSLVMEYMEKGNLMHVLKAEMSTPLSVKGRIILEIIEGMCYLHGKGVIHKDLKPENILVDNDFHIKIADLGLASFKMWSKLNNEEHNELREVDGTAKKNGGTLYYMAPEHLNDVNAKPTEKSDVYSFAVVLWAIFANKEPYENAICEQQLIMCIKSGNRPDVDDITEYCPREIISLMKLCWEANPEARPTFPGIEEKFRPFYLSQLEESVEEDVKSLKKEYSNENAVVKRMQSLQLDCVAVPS
Protocol: Methods: RIPK1 (1-330) protein with a final concentration of 2 μM and ATP (IX kinase buffer) with a corresponding concentration, final concentration of 5 μL, were added to the 384-well plate, respectively. Each group at least set up triplicate wells and reacted for 2 h at 37° C. 5 μL ADP-Glo reagent was added, which was used to stop kinase reaction and remove residual ATP in reaction system. The plates was placed at room temperature for 40 min. 10 μL kinase detection reagent was added, which was used to convert ADP into ATP and introduce luciferase and luciferin for ATP detection into the system. The reaction was carried out at room temperature for 1 h. 7500 Fast Real-Time PCR System was used to detect luminescence. The IC50 of the compounds inhibiting the kinase reaction was calculated using Prism Graphpad statistical software.

[2] = Liver microsomal stability test, mouse; assay type: in vitro ADME
Description: The adopted biological test protocol was: testing the half-life of the compound in human- or mouse-derived liver microsomes.
Liver microsomes contain many enzymes involved in drug metabolism, especially cytochrome P-450, and therefore it is one of the major tissues involved in drug metabolism in living organisms. There are some correlations between the stability of the compound in liver microsomes and the pharmacogenetic stability thereof in vivo. Therefore, the relative stability of compounds in vivo can be roughly predicted by testing the half-life of different compounds in human- or mouse-derived liver microsomes. The specific methods were as follows:
Methods: 0.75 μL of 0.5 mM samples (compounds to be tested and control verapamil), 9.38 μL of 20 mg/mL liver microsomes (Human and Mouse) were taken and added to 239.88 μL PBS (on ice), and divided into 30 μL/tube samples respectively. The samples were incubated at 37° C. in a constant temperature water bath for 5 min, and then all samples were taken out. At zero-time, control group was added with 90 μL of ice acetonitrile first, and then added with 15 μL of 3 mM NADPH solution sequentially, and incubated at 37° C. in a constant temperature water bath. The corresponding samples were taken out after 5 min, 10 min, 20 min, 30 min and 60 min, respectively, and quenched by adding 90 μL of ice acetonitrile. All samples were centrifuged at 10000 rpm for 10 min, and the supernatants were taken and placed in a liquid phase vial waiting for LC-MS analysis.

## Cn1ncc(C(=O)NCc2ccc(-n3cnc4c(N)ncnc43)cc2)c1Cc1ccccc1 [QY-10-40]
[1]
  inhibitory effect on pathway signals compared with GSK2982772 and Nec-1s: far superior to the other two
RIPK1(1-330) protein
  IC50: 219 nM
[2]; mouse derived liver microsomes
  stability in liver microsomes (in words): good stability
[2]; mouse liver microsomes, NADPH, 37° C.
  T1/2 (min) Mouse: 69.3 min
